pIC50: −log10 of the molar value.
Target: T1, human ENT1 (Homo sapiens, UniProt Q99808)
T1 sequence (Q99808 1-456): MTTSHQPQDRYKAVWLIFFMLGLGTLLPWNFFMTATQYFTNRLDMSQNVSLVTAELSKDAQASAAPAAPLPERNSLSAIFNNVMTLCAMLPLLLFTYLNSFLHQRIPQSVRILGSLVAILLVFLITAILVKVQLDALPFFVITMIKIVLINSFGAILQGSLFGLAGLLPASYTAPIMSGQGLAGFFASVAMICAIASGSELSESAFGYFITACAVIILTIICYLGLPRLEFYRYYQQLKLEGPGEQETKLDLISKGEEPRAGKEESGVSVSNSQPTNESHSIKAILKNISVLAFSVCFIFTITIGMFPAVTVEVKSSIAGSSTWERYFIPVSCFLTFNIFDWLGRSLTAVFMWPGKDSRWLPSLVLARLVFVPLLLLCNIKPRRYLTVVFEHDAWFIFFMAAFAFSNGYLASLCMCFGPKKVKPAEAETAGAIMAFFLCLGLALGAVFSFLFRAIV
Assay: ENT1 binding assay (competition with Sahenta-DY647 on JAR cells)
Design: JAR cells expressing ENT1 were bought from ATCC; host or cells: JAR cells
Details: binned IC50
Description: Purpose. […] By measuring the fluorescence at the end of the assay we could assess the binding potency of the compounds of the present invention.
JAR cells were resuspended in the described buffer. Compounds of the present invention and Sahenta-DY647 were diluted 200× in the described buffer.
The total volume of the reaction was 100 μL (50 μL of cells, 25 μL of the compounds of the present invention and 25 μL of Sahenta-DY647) in a 96 well plate, U-bottom (Greiner®, #650-180). The plates were washed 2× by centrifugation (4 min, 400 rcf at 4° C.) in the same buffer.

| pIC50 | Structure (SMILES) |
| --- | --- |
| 6.30 to 7.00 | COCCN(CCOC)c1nc(N2CCN(c3ncn(C)n3)CC2)c2nc(N(CCOC)CCOC)nc(N(C)Cc3cccc(F)c3)c2n1 [Compound 241, N4-(3-fluorobenzyl)-N2,N2,N6,N6-tetrakis(2-methoxyethyl)-N4-methyl-8-(4-(1-methyl-1H-1,2,4-triazol-3-yl)piperazin-1-yl)pyrimido[5,4-d]pyrimidine-2,4,6-triamine] |
| > 7.00 | COCCN(CCOC)c1nc(N2CCN(c3ncn(C)n3)CC2)c2nc(N(CCOC)CCOC)nc(NCc3ccc(F)c(F)c3)c2n1 [Compound 227, N4-(3,4-difluorobenzyl)-N2,N2,N6,N6-tetrakis(2-methoxyethyl)-8-(4-(1-methyl-1H-1,2,4-triazol-3-yl)piperazin-1-yl)pyrimido[5,4-d]pyrimidine-2,4,6-triamine] |
| 6.00 to 6.30 | COCCN(CCOC)c1nc(N2CCC(OC)CC2)c2nc(N(CCOC)CCOC)nc(NCc3ccncc3)c2n1 [Compound 61, N2,N2,N6,N6-tetrakis(2-methoxyethyl)-8-(4-methoxypiperidin-1-yl)-N4-(pyridin-4-ylmethyl)pyrimido[5,4-d]pyrimidine-2,4,6-triamine] |
| > 7.00 | COCCN(CCOC)c1nc(N2CCN(C)C(=O)C2)c2nc(N(CCOC)CCOC)nc(NCc3ccc(F)c(F)c3)c2n1 [Compound 213, 4-(2,6-bis(bis(2-methoxyethyl)amino)-8-((3,4-difluorobenzyl)amino)pyrimido[5,4-d]pyrimidin-4-yl)-1-methylpiperazin-2-one] |
| > 7.00 | COCCN(Cc1ccc(C(=O)O)c(F)c1)c1nc(N2CCN(C)C(=O)C2)c2nc(N(CCOC)CCOC)nc(N3CCC(OC)CC3)c2n1 [Compound 336, 4-(((6-(bis(2-methoxyethyl)amino)-8-(4-methoxypiperidin-1-yl)-4-(4-methyl-3-oxopiperazin-1-yl)pyrimido[5,4-d]pyrimidin-2-yl)(2-methoxyethyl)amino)methyl)-2-fluorobenzoic acid] |
| 6.30 to 7.00 | COCCN(CCOC)c1nc(N2CCN(C)C(=O)C2)c2nc(N3CCC(S(C)(=O)=O)CC3)nc(N3CCC(OC)CC3)c2n1 [Compound 292, 4-(2-(bis(2-methoxyethyl)amino)-8-(4-methoxypiperidin-1-yl)-6-(4-(methyisulfonyl)piperidin-1-yl)pyrimido[5,4-d]pyrimidin-4-yl)-1-methylpiperazin-2-one] |
| 6.00 to 6.30 | COCCN(CCOC)c1nc(N2CCN(C)C(=O)C2)c2nc(N(CCO)CCO)nc(N3CCC(OC)CC3)c2n1 [Compound 271, 4-(6-(bis(2-hydroxyethyl)amino)-2-(bis(2-methoxyethyl)amino)-8-(4-methoxypiperidin-1-yl)pyrimido[5,4-d]pyrimidin-4-yl)-1-methylpiperazin-2-one] |
| > 7.00 | COCCCN(CCCOC)c1nc(N2CCC(OC)CC2)c2nc(N(CCCO)CCCO)nc(N3CCN(C)C(=O)C3)c2n1 [Compound 329, 4-(2-(bis(3-hydroxypropyl)amino)-6-(bis(3-methoxypropyl)amino)-8-(4-methoxypiperidin-1-yl)pyrimido[5,4-d]pyrimidin-4-yl)-1-methylpiperazin-2-one] |
| 6.30 to 7.00 | COCCN(CCOC)c1nc(N2CCN(C)C(=O)C2)c2nc(N(CCOC)CCOC)nc(NCc3cccc(S(N)(=O)=O)c3)c2n1 [Compound 204, 3-(((2,6-bis(bis(2-methoxyethyl)amino)-8-(4-methyl-3-oxopiperazin-1-yl)pyrimido[5,4-d]pyrimidin-4-yl)amino)methyl)benzenesulfonamide] |
| 6.30 to 7.00 | COCCN(CCOC)c1nc(N2CCCC(CO)C2)c2nc(N(CCOC)CCOC)nc(N3CCC(OC)CC3)c2n1 (centres unmarked) [Compound 115, (1-(2,6-bis(bis(2-methoxyethyl)amino)-8-(4-methoxypiperidin-1-yl)pyrimido[5,4-d]pyrimidin-4-yl)piperidin-3-yl)methanol] |
| 6.30 to 7.00 | COCCN(CCOC)c1nc(N2CCC(OC)CC2)c2nc(N(CCOC)CCOC)nc(N(C)Cc3cccc(OC(F)(F)F)c3)c2n1 [Compound 231, N2,N2,N6,N6-tetrakis(2-methoxyethyl)-8-(4-methoxypiperidin-1-yl)-N4-methyl-N4-(3-(trifluoromethoxy)benzyl)pyrimido[5,4-d]pyrimidine-2,4,6-triamine] |
| 6.30 to 7.00 | COCCN(CCOC)c1nc(N2CCC(OC)CC2)c2nc(N3CCn4cncc4C3)nc(N3CCN(C)C(=O)C3)c2n1 [Compound 297, 4-(6-(bis(2-methoxyethyl)amino)-2-(5,6-dihydroimidazo[1,5-a]pyrazin-7(8H)-yl)-8-(4-methoxypiperidin-1-yl)pyrimido[5,4-d]pyrimidin-4-yl)-1-methylpiperazin-2-one] |
| 6.00 to 6.30 | COCCN(CCOC)c1nc(N2CC(=O)N(C)C(C)C2)c2nc(N(CCO)CCO)nc(N3CCC(OC)CC3)c2n1 (centres unmarked) [Compound 310, 4-(6-(bis(2-hydroxyethyl)amino)-2-(bis(2-methoxyethyl)amino)-8-(4-methoxypiperidin-1-yl)pyrimido[5,4-d]pyrimidin-4-yl)-1,6-dimethylpiperazin-2-one] |
| 6.30 to 7.00 | COC(C)CN(CC(C)OC)c1nc(N2CCC(OC)CC2)c2nc(N(CCO)CCO)nc(N3CCN(C)C(=O)C3)c2n1 (centres unmarked) [Compound 328, 4-(2-(bis(2-hydroxyethyl)amino)-6-(bis(2-methoxypropyl)amino)-8-(4-methoxypiperidin-1-yl)pyrimido[5,4-d]pyrimidin-4-yl)-1-methylpiperazin-2-one] |
| 6.30 to 7.00 | COCCN(CCOC)c1nc(N2CCC(OC)CC2)c2nc(N3CCn4nncc4C3)nc(N3CCN(C)C(=O)C3)c2n1 [Compound 287, 4-(6-(bis(2-methoxyethyl)amino)-2-(6,7-dihydro-[1,2,3]triazolo[1,5-a]pyrazin-5(4H)-yl)-8-(4-methoxypiperidin-1-yl)pyrimido[5,4-d]pyrimidin-4-yl)-1-methylpiperazin-2-one] |
| 6.30 to 7.00 | COCCN(CCOC)c1nc(N2CCCC(OC)C2)c2nc(N(CCOC)CCOC)nc(N3CCC(OC)CC3)c2n1 (centres unmarked) [Compound 96, N2,N2,N6,N6-tetrakis(2-methoxyethyl)-4-(3-methoxypiperidin-1-yl)-8-(4-methoxypiperidin-1-yl)pyrimido[5,4-d]pyrimidine-2,6-diamine] |
| > 7.00 | COCCN(Cc1ccc(C(=O)O)c(C(F)(F)F)c1)c1nc(N2CCN(C)C(=O)C2)c2nc(N(CCOC)CCOC)nc(N3CCC(OC)CC3)c2n1 [Compound 339, 4-(((6-(bis(2-methoxyethyl)amino)-8-(4-methoxypiperidin-1-yl)-4-(4-methyl-3-oxopiperazin-1-yl)pyrimido[5,4-d]pyrimidin-2-yl)(2-methoxyethyl)amino)methyl)-2-(trifluoromethyl)benzoic acid] |
| 6.00 to 6.30 | COCCN(CCOC)c1nc(N2CC(C)(O)C2)c2nc(N(CCOC)CCOC)nc(N3CCC(OC)CC3)c2n1 [Compound 101, 1-(2,6-bis(bis(2-methoxyethyl)amino)-8-(4-methoxypiperidin-1-yl)pyrimido[5,4-d]pyrimidin-4-yl)-3-methylazetidin-3-ol] |
| 6.30 to 7.00 | COCCN(CCOC)c1nc(N2CCN(C)C(=O)C2)c2nc(N(CCOC)CCOC)nc(N(C)Cc3cccc(C(N)=O)c3)c2n1 [Compound 240, 3-(((2,6-bis(bis(2-methoxyethyl)amino)-8-(4-methyl-3-oxopiperazin-1-yl)pyrimido[5,4-d]pyrimidin-4-yl)(methyl)amino)methyl)benzamide] |
| 6.00 to 6.30 | COCCN(CCOC)c1nc(N2CCC(OC)CC2)c2nc(N(CCOC)CCOC)nc(NCCc3cnc[nH]3)c2n1 [Compound 95, N4-(2-(1H-imidazol-5-yl)ethyl)-N2,N2,N6,N6-tetrakis(2-methoxyethyl)-8-(4-methoxypiperidin-1-yl)pyrimido[5,4-d]pyrimidine-2,4,6-triamine] |
| > 7.00 | COCCN(CCOC)c1nc(N2CCc3oc(C)nc3C2)c2nc(N(CCOC)Cc3ccc(C(=O)O)cc3)nc(N3CCN(C)C(=O)C3)c2n1 [Compound 335, 4-(((6-(bis(2-methoxyethyl)amino)-4-(4-methyl-3-oxopiperazin-1-yl)-8-(2-methyl-6,7-dihydrooxazolo[4,5-c]pyridin-5(4H)-yl)pyrimido[5,4-d]pyrimidin-2-yl)(2-methoxyethyl)amino)methyl)benzoic acid] |
| > 7.00 | COCCN(CCOC)c1nc(N2CCC(OC)CC2)c2nc(N(CCO)CCO)nc(N3CC(=O)N(C)C(C)(C)C3)c2n1 [Compound 311, 4-(2-(bis(2-hydroxyethyl)amino)-6-(bis(2-methoxyethyl)amino)-8-(4-methoxypiperidin-1-yl)pyrimido[5,4-d]pyrimidin-4-yl)-1,6,6-trimethylpiperazin-2-one] |
| > 7.00 | COCCN(CCOC)c1nc(N2CCn3ncnc3C2)c2nc(N(CCOC)CCOC)nc(N3CCN(C)C(=O)C3)c2n1 [Compound 5, 4-(2,6-bis(bis(2-methoxyethyl)amino)-8-(5,6-dihydro-[1,2,4]triazolo[1,5-a]pyrazin-7(8H)-yl)pyrimido[5,4-d]pyrimidin-4-yl)-1-methylpiperazin-2-one] |
